The nature of this data set: Solubility of the compound of formula I. It is filed as physicochemical.

Consider `CC(C)(C)ONc1nc(Nc2ccnc(C(F)(F)F)c2)nc(-c2cccc(C(F)(F)F)n2)n1` [compound of formula I, 4-(tert-butoxyamino)-6-(6-(trifluoromethyl)pyridin-2-yl)-N-(2-(trifluoromethyl)pyridin-4-yl)-1,3,5-triazin-2-amine], for which the “Solubility in either acidic or basic condition” value (acidic or basic condition) is listed as “poor solubility”. Under “water”, the Solubility in water entry is “hardly soluble”.

Source of the values: patent US12097204B2, “Solid pharmaceutical composition containing 1,3,5-triazine derivative or salt thereof” (CHIA TAI TIANQING PHARMACEUTICAL GROUP CO., LTD., priority 2018, dated 2024).
